Test system: IGROV1 complex spheroids (HUVEC, MSC), viability % test/control
Assay: Anticancer human tumor IGROV1 cell line growth inhibition [GQUAD];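 also: spheroids exposed to compounds for 7 days before readout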;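 as to viability, T/C: 100% = DMSO vehicle control viability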
Details: for IC50: curve of first compound; for viability, T/C: stronger effect = lower value
Procedure, shortened: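 Viability of tumor cells grown as complex spheroids with endothelial and stromal cells, exposed to drug combinations. Top concentration at or near clinical Cmax (else 10 microM), diluted in half-log increments.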

[1] = second compound 0.0316 µM, first compound 0.0316 µM
[2] = second compound 0.0316 µM, first compound 0.316 µM
[3] = second compound 0.1 µM, first compound 0.0316 µM
[4] = second compound 0.1 µM, first compound 0.316 µM
[5] = second compound 0.316 µM, first compound 0.0316 µM
[6] = second compound 0.316 µM, first compound 0.316 µM
[7] = second compound 1 µM, first compound 0.0316 µM
[8] = second compound 1 µM, first compound 0.316 µM
[9] = second compound 3.16 µM, first compound 0.0316 µM
[10] = second compound 3.16 µM, first compound 0.316 µM
[11] = second compound 10 µM, first compound 0.0316 µM
[12] = second compound 10 µM, first compound 0.316 µM
[13] = second compound 0.0316 µM, first compound 0.000999 µM
[14] = second compound 0.0316 µM, first compound 0.00316 µM
[15] = second compound 0.0316 µM, first compound 0.00999 µM
[16] = second compound 0.0316 µM, first compound 0.0999 µM
[17] = second compound 0.1 µM, first compound 0.000999 µM
[18] = second compound 0.1 µM, first compound 0.00316 µM
[19] = second compound 0.1 µM, first compound 0.00999 µM
[20] = second compound 0.1 µM, first compound 0.0999 µM
[21] = second compound 0.316 µM, first compound 0.000999 µM
[22] = second compound 0.316 µM, first compound 0.00316 µM
[23] = second compound 0.316 µM, first compound 0.00999 µM
[24] = second compound 0.316 µM, first compound 0.0999 µM
[25] = second compound 1 µM, first compound 0.000999 µM
[26] = second compound 1 µM, first compound 0.00316 µM
[27] = second compound 1 µM, first compound 0.00999 µM
[28] = second compound 1 µM, first compound 0.0999 µM
[29] = second compound 3.16 µM, first compound 0.000999 µM
[30] = second compound 3.16 µM, first compound 0.00316 µM
[31] = second compound 3.16 µM, first compound 0.00999 µM
[32] = second compound 3.16 µM, first compound 0.0999 µM
[33] = second compound 10 µM, first compound 0.000999 µM
[34] = second compound 10 µM, first compound 0.00316 µM
[35] = second compound 10 µM, first compound 0.00999 µM
[36] = second compound 10 µM, first compound 0.0999 µM

Compound: CC(=O)O[C@H]1C(=O)[C@@]2(C)[C@H]([C@H](OC(=O)c3ccccc3)[C@]3(O)C[C@H](OC(=O)[C@H](O)[C@@H](NC(=O)c4ccccc4)c4ccccc4)C(C)=C1C3(C)C)[C@]1(OC(C)=O)CO[C@@H]1C[C@@H]2O + CN(C)c1ccc(Nc2c3ccc(NC(=O)CCN4CCCC4)cc3nc3cc(NC(=O)CCN4CCCC4)ccc23)cc1
- IC50 (second compound 0.0316 µM): < 31.6 nM
- IC50 (second compound 0.1 µM): < 31.6 nM
- IC50 (second compound 0.316 µM): < 31.6 nM
- IC50 (second compound 1 µM): < 31.6 nM
- IC50 (second compound 3.16 µM): < 31.6 nM
- IC50 (second compound 10 µM): < 31.6 nM
- viability, T/C [1]: 7.64%
- viability, T/C (second compound 0.0316 µM, first compound 0.1 µM): 6.24%
- viability, T/C [2]: 6.32%
- viability, T/C (second compound 0.0316 µM, first compound 1 µM): 5.33%
- viability, T/C (second compound 0.0316 µM, first compound 3.16 µM): 5%
- viability, T/C (second compound 0.0316 µM, first compound 10 µM): 6.24%
- viability, T/C [3]: 7.68%
- viability, T/C (second compound 0.1 µM, first compound 0.1 µM): 5.09%
- viability, T/C [4]: 5.96%
- viability, T/C (second compound 0.1 µM, first compound 1 µM): 5.48%
- viability, T/C (second compound 0.1 µM, first compound 3.16 µM): 6.36%
- viability, T/C (second compound 0.1 µM, first compound 10 µM): 6.3%
- viability, T/C [5]: 8.36%
- viability, T/C (second compound 0.316 µM, first compound 0.1 µM): 5.82%
- viability, T/C [6]: 5.8%
- viability, T/C (second compound 0.316 µM, first compound 1 µM): 5.16%
- viability, T/C (second compound 0.316 µM, first compound 3.16 µM): 5.67%
- viability, T/C (second compound 0.316 µM, first compound 10 µM): 6.87%
- viability, T/C [7]: 7.67%
- viability, T/C (second compound 1 µM, first compound 0.1 µM): 6.92%
- viability, T/C [8]: 6.05%
- viability, T/C (second compound 1 µM, first compound 1 µM): 5.19%
- viability, T/C (second compound 1 µM, first compound 3.16 µM): 6.15%
- viability, T/C (second compound 1 µM, first compound 10 µM): 5.74%
- viability, T/C [9]: 6.2%
- viability, T/C (second compound 3.16 µM, first compound 0.1 µM): 8.18%
- viability, T/C [10]: 6.89%
- viability, T/C (second compound 3.16 µM, first compound 1 µM): 5.22%
- viability, T/C (second compound 3.16 µM, first compound 3.16 µM): 6.1%
- viability, T/C (second compound 3.16 µM, first compound 10 µM): 5.7%
- viability, T/C [11]: 7.12%
- viability, T/C (second compound 10 µM, first compound 0.1 µM): 6.03%
- viability, T/C [12]: 5.99%
- viability, T/C (second compound 10 µM, first compound 1 µM): 4.33%
- viability, T/C (second compound 10 µM, first compound 3.16 µM): 4.7%
- viability, T/C (second compound 10 µM, first compound 10 µM): 4.57%

Compound: CC[C@@]1(O)C(=O)OCc2c1cc1n(c2=O)Cc2cc3c(CN(C)C)c(O)ccc3nc2-1 + CN(C)c1ccc(Nc2c3ccc(NC(=O)CCN4CCCC4)cc3nc3cc(NC(=O)CCN4CCCC4)ccc23)cc1
- IC50 (second compound 0.0316 µM): 22.1 nM
- IC50 (second compound 0.1 µM): 24.5 nM
- IC50 (second compound 0.316 µM): 25 nM
- IC50 (second compound 1 µM): 22.8 nM
- IC50 (second compound 3.16 µM): 29.3 nM
- IC50 (second compound 10 µM): < 0.999 nM
- viability, T/C [13]: 98.2%
- viability, T/C [14]: 95.7%
- viability, T/C [15]: 93.1%
- viability, T/C [1]: 30.5%
- viability, T/C [16]: 12.2%
- viability, T/C [2]: 10.9%
- viability, T/C [17]: 98.1%
- viability, T/C [18]: 87.8%
- viability, T/C [19]: 86%
- viability, T/C [3]: 39.7%
- viability, T/C [20]: 13.5%
- viability, T/C [4]: 9.48%
- viability, T/C [21]: 94.5%
- viability, T/C [22]: 87.5%
- viability, T/C [23]: 91.8%
- viability, T/C [5]: 39.4%
- viability, T/C [24]: 12.4%
- viability, T/C [6]: 12.2%
- viability, T/C [25]: 87.5%
- viability, T/C [26]: 81.7%
- viability, T/C [27]: 75.9%
- viability, T/C [7]: 40.5%
- viability, T/C [28]: 9.84%
- viability, T/C [8]: 12.7%
- viability, T/C [29]: 70.5%
- viability, T/C [30]: 89.4%
- viability, T/C [31]: 77.4%
- viability, T/C [9]: 48.1%
- viability, T/C [32]: 13.5%
- viability, T/C [10]: 10.8%
- viability, T/C [33]: 42.9%
- viability, T/C [34]: 35%
- viability, T/C [35]: 37%
- viability, T/C [11]: 19.1%
- viability, T/C [36]: 9.45%
- viability, T/C [12]: 6.49%

Compound: CCc1c2c(nc3ccc(O)cc13)-c1cc3c(c(=O)n1C2)COC(=O)[C@]3(O)CC + CN(C)c1ccc(Nc2c3ccc(NC(=O)CCN4CCCC4)cc3nc3cc(NC(=O)CCN4CCCC4)ccc23)cc1
- IC50 (second compound 0.0316 µM): 1.22 nM
- IC50 (second compound 0.1 µM): 1.05 nM
- IC50 (second compound 0.316 µM): < 0.999 nM
- IC50 (second compound 1 µM): < 0.999 nM
- IC50 (second compound 3.16 µM): < 0.999 nM
- IC50 (second compound 10 µM): < 0.999 nM
- viability, T/C [13]: 57.5%
- viability, T/C [14]: 15.8%
- viability, T/C [15]: 11.4%
- viability, T/C [1]: 7.01%
- viability, T/C [16]: 5.52%
- viability, T/C [2]: 1.54%
- viability, T/C [17]: 51.9%
- viability, T/C [18]: 15.3%
- viability, T/C [19]: 11.3%
- viability, T/C [3]: 8.79%
- viability, T/C [20]: 5.38%
- viability, T/C [4]: 1.47%
- viability, T/C [21]: 49.7%
- viability, T/C [22]: 16.7%
- viability, T/C [23]: 9.1%
- viability, T/C [5]: 8.69%
- viability, T/C [24]: 3.87%
- viability, T/C [6]: 1.5%
- viability, T/C [25]: 49.5%
- viability, T/C [26]: 13.7%
- viability, T/C [27]: 9.93%
- viability, T/C [7]: 8.16%
- viability, T/C [28]: 5.08%
- viability, T/C [8]: 2.04%
- viability, T/C [29]: 42.3%
- viability, T/C [30]: 11.4%
- viability, T/C [31]: 8.41%
- viability, T/C [9]: 8.25%
- viability, T/C [32]: 5.52%
- viability, T/C [10]: 1.58%
- viability, T/C [33]: 20.3%
- viability, T/C [34]: 10.7%
- viability, T/C [35]: 9.09%
- viability, T/C [11]: 5.5%
- viability, T/C [36]: 2.71%
- viability, T/C [12]: 2.02%

Reference: PubChem BioAssay AID2060486 (Molecular Pharmacology Branch, DTP, NCI, 2025)
